Source: ChEMBL document CHEMBL3751776, “Expanding the structural diversity of diarylureas as multi-target tyrosine kinase inhibitors” (Bioorg Med Chem, 2016)

Key:
[1] = target: Fibroblast growth factor receptor 1 (Homo sapiens, UniProt P11362); assay: Inhibition of FGFR1 (unknown origin) incubated for 1 hr assessed as luminescence changes using ATP by ADP-Glo Kinase assay
[2] = target: Vascular endothelial growth factor receptor 2 (Homo sapiens, UniProt P35968); assay: Inhibition of KDR (unknown origin) incubated for 1 hr assessed as luminescence changes using ATP by ADP-Glo Kinase assay
A549 = assay: Antiproliferative activity against human A549 cells assessed as growth inhibition after 48 hrs by MTT assay; format: functional, cell-based; settings: A549, 48 h
[3] = target: Epidermal growth factor receptor (Homo sapiens, UniProt P00533); assay: Inhibition of EGFR (unknown origin) incubated for 1 hr assessed as luminescence changes using ATP by ADP-Glo Kinase assay
[4] = Antiproliferative activity against human SMMC7721 cells assessed as growth inhibition after 48 hrs by MTT assay; format: functional, cell-based; settings: SMMC-7721, 48 h

Chain of Vascular endothelial growth factor receptor 2 (P35968 whole entry): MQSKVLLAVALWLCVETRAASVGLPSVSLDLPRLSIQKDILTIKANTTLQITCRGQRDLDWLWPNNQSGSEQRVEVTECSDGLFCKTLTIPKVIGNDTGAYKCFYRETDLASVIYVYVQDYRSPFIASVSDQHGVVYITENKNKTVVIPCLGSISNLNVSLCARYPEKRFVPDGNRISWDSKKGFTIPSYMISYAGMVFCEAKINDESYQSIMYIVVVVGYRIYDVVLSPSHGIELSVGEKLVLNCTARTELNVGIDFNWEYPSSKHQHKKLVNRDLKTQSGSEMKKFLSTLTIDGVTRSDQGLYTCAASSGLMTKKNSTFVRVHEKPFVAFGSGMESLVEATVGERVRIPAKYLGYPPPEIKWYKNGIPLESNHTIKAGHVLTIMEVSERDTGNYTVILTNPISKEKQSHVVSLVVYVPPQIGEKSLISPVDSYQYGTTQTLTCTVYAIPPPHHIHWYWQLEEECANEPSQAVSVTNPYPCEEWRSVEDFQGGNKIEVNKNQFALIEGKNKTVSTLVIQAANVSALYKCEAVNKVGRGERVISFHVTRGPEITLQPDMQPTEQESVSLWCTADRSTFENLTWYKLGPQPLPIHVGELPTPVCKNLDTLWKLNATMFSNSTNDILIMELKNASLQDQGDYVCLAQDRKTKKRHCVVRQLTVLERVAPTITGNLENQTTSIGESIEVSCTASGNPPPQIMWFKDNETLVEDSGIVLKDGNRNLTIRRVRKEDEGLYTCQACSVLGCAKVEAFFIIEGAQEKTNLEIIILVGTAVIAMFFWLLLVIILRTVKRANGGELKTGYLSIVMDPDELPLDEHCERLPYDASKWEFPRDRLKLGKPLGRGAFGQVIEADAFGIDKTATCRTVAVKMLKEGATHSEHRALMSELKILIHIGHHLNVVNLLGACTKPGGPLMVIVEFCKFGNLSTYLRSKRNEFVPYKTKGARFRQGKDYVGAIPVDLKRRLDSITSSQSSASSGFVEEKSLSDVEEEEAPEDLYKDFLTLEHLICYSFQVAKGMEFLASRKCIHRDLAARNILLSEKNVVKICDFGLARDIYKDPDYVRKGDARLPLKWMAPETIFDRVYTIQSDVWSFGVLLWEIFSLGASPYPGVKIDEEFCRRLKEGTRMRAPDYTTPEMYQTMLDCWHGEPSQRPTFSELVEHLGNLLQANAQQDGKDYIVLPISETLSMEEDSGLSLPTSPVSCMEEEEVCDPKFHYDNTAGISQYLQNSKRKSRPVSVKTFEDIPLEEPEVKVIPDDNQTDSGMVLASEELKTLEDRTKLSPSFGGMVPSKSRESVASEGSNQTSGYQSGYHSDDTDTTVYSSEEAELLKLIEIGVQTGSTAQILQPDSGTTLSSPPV
Chain of Epidermal growth factor receptor (P00533 whole entry): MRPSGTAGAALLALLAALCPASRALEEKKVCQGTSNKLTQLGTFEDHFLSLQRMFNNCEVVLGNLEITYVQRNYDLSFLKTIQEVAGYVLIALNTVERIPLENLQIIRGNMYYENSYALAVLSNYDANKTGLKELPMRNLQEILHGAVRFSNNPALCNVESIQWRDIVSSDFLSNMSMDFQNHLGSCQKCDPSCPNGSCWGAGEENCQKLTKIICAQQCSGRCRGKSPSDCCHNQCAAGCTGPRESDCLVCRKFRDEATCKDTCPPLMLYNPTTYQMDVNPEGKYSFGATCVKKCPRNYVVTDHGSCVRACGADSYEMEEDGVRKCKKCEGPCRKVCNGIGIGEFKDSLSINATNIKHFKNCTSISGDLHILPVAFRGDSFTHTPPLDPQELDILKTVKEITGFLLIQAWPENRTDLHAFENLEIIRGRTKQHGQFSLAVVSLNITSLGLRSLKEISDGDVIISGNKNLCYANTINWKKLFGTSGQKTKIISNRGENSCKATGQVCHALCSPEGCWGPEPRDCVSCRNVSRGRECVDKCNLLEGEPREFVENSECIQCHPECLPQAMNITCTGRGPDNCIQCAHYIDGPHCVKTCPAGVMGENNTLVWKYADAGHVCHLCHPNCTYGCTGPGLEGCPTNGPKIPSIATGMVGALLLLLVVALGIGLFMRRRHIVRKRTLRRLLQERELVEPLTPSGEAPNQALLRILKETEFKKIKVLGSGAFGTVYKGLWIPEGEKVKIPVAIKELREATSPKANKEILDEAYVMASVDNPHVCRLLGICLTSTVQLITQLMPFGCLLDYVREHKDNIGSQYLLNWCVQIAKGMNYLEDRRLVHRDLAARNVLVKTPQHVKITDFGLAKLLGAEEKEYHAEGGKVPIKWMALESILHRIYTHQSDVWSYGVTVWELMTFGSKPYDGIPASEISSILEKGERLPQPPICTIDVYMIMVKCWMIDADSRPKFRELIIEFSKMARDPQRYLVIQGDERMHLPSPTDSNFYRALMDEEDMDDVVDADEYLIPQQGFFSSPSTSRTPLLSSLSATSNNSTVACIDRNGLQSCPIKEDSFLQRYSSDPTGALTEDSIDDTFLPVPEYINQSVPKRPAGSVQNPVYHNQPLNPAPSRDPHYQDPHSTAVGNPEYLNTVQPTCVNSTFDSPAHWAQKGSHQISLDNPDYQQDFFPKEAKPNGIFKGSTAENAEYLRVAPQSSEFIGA
Chain of Fibroblast growth factor receptor 1 (P11362 whole entry): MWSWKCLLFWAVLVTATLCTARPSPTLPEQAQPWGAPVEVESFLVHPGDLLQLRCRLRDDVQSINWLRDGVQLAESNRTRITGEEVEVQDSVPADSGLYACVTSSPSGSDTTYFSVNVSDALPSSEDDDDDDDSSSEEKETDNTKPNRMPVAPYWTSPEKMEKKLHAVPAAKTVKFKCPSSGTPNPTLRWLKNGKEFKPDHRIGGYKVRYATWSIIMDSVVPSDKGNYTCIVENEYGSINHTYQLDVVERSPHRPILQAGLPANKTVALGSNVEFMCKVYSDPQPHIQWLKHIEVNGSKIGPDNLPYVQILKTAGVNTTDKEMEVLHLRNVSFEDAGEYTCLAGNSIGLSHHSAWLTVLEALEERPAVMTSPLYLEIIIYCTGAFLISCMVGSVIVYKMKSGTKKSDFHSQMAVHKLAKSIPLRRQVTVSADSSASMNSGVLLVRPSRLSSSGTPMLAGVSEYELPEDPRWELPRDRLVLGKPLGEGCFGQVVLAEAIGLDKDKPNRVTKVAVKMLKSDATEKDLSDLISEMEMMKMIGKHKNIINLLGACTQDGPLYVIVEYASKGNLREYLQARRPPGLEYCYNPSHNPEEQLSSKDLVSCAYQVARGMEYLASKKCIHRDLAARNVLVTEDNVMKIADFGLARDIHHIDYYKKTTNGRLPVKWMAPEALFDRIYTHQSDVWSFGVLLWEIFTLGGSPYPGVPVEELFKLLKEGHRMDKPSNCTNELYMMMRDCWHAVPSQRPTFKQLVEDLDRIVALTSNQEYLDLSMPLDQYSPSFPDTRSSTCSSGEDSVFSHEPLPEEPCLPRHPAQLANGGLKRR

| SMILES | IC50 [1] | IC50 [2] | IC50 (A549) | IC50 [3] | IC50 [4] |
| --- | --- | --- | --- | --- | --- |
| O=C(Nc1ccncc1)Nc1cc(-c2cccnc2)cc(C(F)(F)F)c1 | 138 nM | 93 nM | > 300000 nM | 189 nM |  |
| O=C(Nc1nccs1)Nc1cc(-c2cccnc2)ccc1OC(F)(F)F | 96.1 nM | 107 nM |  | 121 nM | 12500 nM |
| COc1ccc(-c2cc(NC(=O)Nc3ccccn3)cc(OC)c2OC)cn1 | > 500 nM | 79.4 nM | 24700 nM | 66.6 nM | 32900 nM |
| COc1ccc(-c2cc(NC(=O)Nc3nccs3)cc(C(F)(F)F)c2)cn1 | > 500 nM | > 500 nM |  | 477 nM | 36200 nM |
| COc1cc(NC(=O)Nc2nccs2)cc(-c2cccnc2)c1OC | 334 nM | 291 nM | 106000 nM | 317 nM |  |
| Cn1cnc(-c2cc(NC(=O)Nc3ccncc3)cc(C(F)(F)F)c2)c1 | 261 nM | 223 nM | 39400 nM | 166 nM | 235000 nM |
| O=C(Nc1nccs1)Nc1cc(-c2cncnc2)ccc1OC(F)(F)F | 154 nM | 68.6 nM | 17600 nM | 71.7 nM | 9350 nM |
| COc1cc(NC(=O)Nc2ccccn2)cc(-c2cccnc2)c1OC | 69.3 nM | > 500 nM | 13500 nM | 48.8 nM | 22400 nM |
| COc1cc(NC(=O)Nc2ccccn2)cc(-c2c[nH]cn2)c1OC | 56.5 nM | 33.2 nM | 14100 nM | 24.8 nM | 21200 nM |
| COc1ccc(-c2ccc(OC(F)(F)F)c(NC(=O)Nc3ccncc3)c2)cn1 | 99.8 nM | > 500 nM | > 300000 nM | 103 nM |  |
| O=C(Nc1cc(-c2cccnc2)cc(C(F)(F)F)c1)Nc1nccs1 | 99.2 nM | 57.4 nM | 92100 nM | 78.2 nM | 68200 nM |
| COc1cc(NC(=O)Nc2ccncc2)cc(-c2cccnc2)c1OC | 272 nM | 213 nM |  | 131 nM | 73600 nM |
| O=C(Nc1ccncc1)Nc1cc(-c2cncnc2)ccc1OC(F)(F)F | 32.6 nM | 22.2 nM | 3750 nM | 18 nM | 3990 nM |
| O=C(Nc1ccccn1)Nc1cc(-c2cccnc2)ccc1OC(F)(F)F | 130 nM | 86.7 nM | 19000 nM |  | 35600 nM |
| COc1cc(NC(=O)Nc2nccs2)cc(-c2cn(C)cn2)c1OC | > 500 nM | 420 nM |  | 362 nM |  |
| CNC(=O)c1cc(Oc2ccc(NC(=O)Nc3ccc(Cl)c(C(F)(F)F)c3)cc2)ccn1 [SORAFENIB] |  |  | 2020 nM |  | 1580 nM |
| O=C(Nc1ccncc1)Nc1cc(-c2cncnc2)cc(C(F)(F)F)c1 | 28.2 nM | 21.6 nM | 2420 nM | 14.8 nM | 3730 nM |
| Cn1cnc(-c2cc(NC(=O)Nc3nccs3)cc(C(F)(F)F)c2)c1 | > 500 nM | 285 nM | 163000 nM | 311 nM |  |
| Cn1cnc(-c2ccc(OC(F)(F)F)c(NC(=O)Nc3ccncc3)c2)c1 | 371 nM | 355 nM | 79300 nM | 94.8 nM | > 300000 nM |
| COc1ccc(-c2cc(NC(=O)Nc3ccncc3)cc(OC)c2OC)cn1 | > 500 nM | > 500 nM |  | 455 nM |  |
| O=C(Nc1cc(-c2cncnc2)cc(C(F)(F)F)c1)Nc1nccs1 | > 500 nM | 86.7 nM | 18300 nM | 71.8 nM | 29700 nM |
| COc1ccc(-c2ccc(OC(F)(F)F)c(NC(=O)Nc3nccs3)c2)cn1 | > 500 nM | 390 nM | 35000 nM | 495 nM | 44100 nM |
| COc1ccc(-c2ccc(OC(F)(F)F)c(NC(=O)Nc3ccccn3)c2)cn1 | > 500 nM | > 500 nM | 177000 nM | > 500 nM | 90400 nM |
| COc1ccc(-c2cc(NC(=O)Nc3ccncc3)cc(C(F)(F)F)c2)cn1 | > 500 nM | 364 nM | 276000 nM | > 500 nM | > 300000 nM |
| O=C(Nc1ccccn1)Nc1cc(-c2cncnc2)ccc1OC(F)(F)F | 81.3 nM | 52.2 nM | 15200 nM | 26.6 nM | 21600 nM |
| COc1cc(NC(=O)Nc2ccncc2)cc(-c2cncnc2)c1OC | > 500 nM | 492 nM | 17300 nM | 290 nM | 12900 nM |
| O=C(Nc1ccncc1)Nc1cc(-c2cccnc2)ccc1OC(F)(F)F | 104 nM | 128 nM | 39800 nM | 97.2 nM | 42800 nM |
